Laboratory results as given in paper PMC8720025, “PTHG2 Reduces Bone Loss in Ovariectomized Mice by Directing Bone Marrow Mesenchymal Stem Cell Fate” (Stem Cells International, 2021).

Legend:
[1] = tested on: CREB phosphorylation in BMSCs; test: Western blotting of CREB phosphorylation (cAMP-PKA signaling); format: cell-based, C57/BL6 mice
Experimental: The unstimulated group was the control group. After the stimulation, the cells were digested, and RIPA cell lysate (containing protein phosphatase inhibitors) was added and centrifuged. 30 μg protein was separated with SDS-PAGE. The proteins were then shifted to the nitrocellulose membrane using a trans-Blot Turbo Transfer System (Bio-Rad Laboratories, Hercules, CA, USA). Membrane was sealed with 5% bovine serum albumin (BSA) for 1 h. Membrane and specific primary antibody were incubated overnight at 4°C. Then, membrane was disposed with fluorescently labeled secondary Goat anti-Rabbit IgG Antibody (Dylight) for 1 hour at 25°C. The protein bands were imaged with a Bio-Rad visual imaging system (Bio-Rad Laboratories, Hercules, CA), and the relative protein expression was analyzed by Image J.

[2] = CD spectroscopy, peptide helicity; format: physicochemical; details: 50 μM peptide in 50.0% TFE water solution, 25°C (legend: 20°C), from [θ]222
Experimental: CD parameters was collected on a JASCO J-820 spectropolarimeter (JASCO Corp., Ltd). […] The sample ellipticity data were collected at 25°C and 195 nm. The helicity of the polypeptide is calculated by the following formula [36, 37]. (1) α=θ222/ θmax×100%.
[θ]222 was the molar ellipticity at the absorption wavelength of 222 nm, [θ]max = ([…] + 250 T) (1 − K/N), K = 4, and N was the number of amino acids of the polypeptide (n = 34).

[3] = tested on: OVX-induced bone loss in mice; test: OVX-induced bone loss model (micro-CT, histology, qPCR); format: in vivo, C57/BL6 mice
BMSCs [4] = test: CCK-8 cell viability assay; format: cell-based, C57/BL6 mice; details: concentrations below 100 μM, 48 h and 96 h, absorbance 450 nm
Experimental: BMSCs were extracted from the femoral and tibial marrow cavity of 5-week-old C57/BL6 mice and cultured in mouse bone marrow mesenchymal stem cell medium for 2-3 days. The new culture medium was changed until the adherent cells grew 95% confluence and cell passage, or subsequent experiments were carried out. The cell growth environment was 37°C, 5% CO2, and […].
Cell viability of BMSCs were tested using the CCK-8 (Dojindo Molecular Technology, Kumamoto, Japan) according to instruction. BMSCs were inoculated in a 96-well plate (5 × 10^3 cells per well) and hatched overnight. […] Then, cells were disposed with 10 μl of CCK-8 reagent for 2 hours. After incubation, the absorbance was measured at 450 nm in a Biotek Cytation 5 System (Biotek Instruments, Vermont, USA).

[5] = tested on: heart, liver, spleen, lung, and kidney of mice; test: In vivo tissue toxicity test (H&E staining of organs); details: H&E staining after administration
Experimental: (a) BMSC cell viability as assessed by CCK-8 assay following treatment without or with indicated concentrations of PTHG2 for 48 and 96 h. […] (c) The relative expression of Cebp-α and Perilipin following PTHG2 treatment was quantified by real-time PCR. (d) After pretreatment with H89, BMSC differentiated and stained with Alizarin red for 21 days. Supplementary Material 2: H&E staining of the heart, liver, spleen, lung, and kidney after administration of normal saline, PTH, and PTHG2. Click here for additional data file.

BMSCs [6] = test: Cell cycle analysis by PI staining and flow cytometry; format: cell-based, C57/BL6 mice; details: PI staining, flow cytometry
Experimental: Cells were cultured with 10 μM BrdU for one hour and fixed in 70% ethanol at -20 C. After washing with phosphate/citric buffer (40 ml Na2HPO4 with 4 ml 0.1 M citric acid), the cells were incubated with anti-BrdU antibody for one hour, then stained with propidium iodide (PI). For PI/RNase staining, cells were incubated with 0.5 ml of PI/RNAse staining buffer (BD Pharmingen) at 25°C for 15 minutes, then analyzed by flow cytometry.

BMSCs [7] = test: In vitro osteogenesis assay of BMSCs; format: cell-based, C57/BL6 mice
BMSCs [8] = test: In vitro adipogenesis assay of BMSCs; format: cell-based, C57/BL6 mice
[9] = 20/40 μg·kg−1 intraperitoneal daily for 8 weeks, compared with OVX group

SMILES | phosphorylation level of CREB ([1]; BMSCs pretreated with H89-2HCl for 1 hour, then stimulated with PTH (1-34)/PTHG2 for 6 hours) | helicity [2] | bone trabeculae number (Tb. N), micro-CT of femur [3, 9] | bone volume fraction (BV/TV), micro-CT of femur [3, 9] | number of FABP4-positive cells (IHC, distal femur) [3] | OCN positivity, immunofluorescence of distal femur ([3]; 8 weeks of treatment) | number of lining cells on the trabecular bone surface (H&E) ([3]; 8 weeks of treatment, compared to the OVX group, n = 6 per group) | expression of OCN gene in bone mRNA (qPCR) ([3]; bone of the upper limb, compared with the OVX group) | inhibition of adipocyte generation (Fabp4 gene, qPCR) ([3]; compared with PTH (1-34)) | number of adipocytes (vacuoles/cavitation) in H&E staining ([3]; metaphysis, compared with OVX group) | toxicity to BMSCs (CCK-8) (BMSCs [4]) | tissue toxicity to heart, liver, spleen, lung, and kidney [5] | effect on cell cycle (BMSCs [6]) | osteogenic differentiation activity of BMSCs (ALP staining) (BMSCs [7]; 10 nM, 6 h/day, osteogenic medium, 7 days) | expression of Runx2 gene (qPCR) (BMSCs [7]; 10 nM, osteogenic differentiation, compared with control group) | ALP and RUNX2 protein levels (Western blotting) (BMSCs [7]; osteogenic differentiation, 3, 7, and 10 days, compared to the control group) | number of adipocytes (oil red staining) (BMSCs [8]; adipogenic conditioned medium, 21 days, compared with the control) | adipogenic gene protein expression (Fabp4/PPARɣ/Adiponectin) (BMSCs [8]; adipogenic differentiation, compared with control group) | phosphorylation level of CREB ([1]; BMSCs starved 1 hour, stimulated with 10 μM peptide for 6 hours, without H89-2HCl)
O=S(=O)(NCCNC/C=C/c1ccc(Br)cc1)c1cccc2cnccc12 [H89-2HCL, H89-2HCl, reference compound] | not increased | – | – | – | – | – | – | – | – | – | – | – | – | – | – | – | – | – | –
CC[C@H](C)[C@H](NC(=O)[C@H](CCC(=O)O)NC(=O)[C@H](CO)NC(=O)[C@@H](NC(=O)[C@@H](N)CO)C(C)C)C(=O)N[C@@H](CCC(N)=O)C(=O)N[C@@H](CC(C)C)C(=O)N[C@@H](CCSC)C(=O)N[C@@H](Cc1c[nH]cn1)C(=O)N[C@@H](CC(N)=O)C(=O)N[C@@H](CC(C)C)C(=O)NCC(=O)N[C@@H](CCCCN)C(=O)N[C@@H](Cc1c[nH]cn1)C(=O)N[C@@H](CC(C)C)C(=O)N[C@@H](CC(N)=O)C(=O)N[C@@H](CO)C(=O)N[C@@H](CCSC)C(=O)N[C@@H](CCC(=O)O)C(=O)N[C@@H](CCCNC(=N)N)C(=O)N[C@H](C(=O)N[C@@H](CCC(=O)O)C(=O)N[C@@H](Cc1c[nH]c2ccccc12)C(=O)N[C@@H](CC(C)C)C(=O)N[C@@H](CCCNC(=N)N)C(=O)N[C@@H](CCCCN)C(=O)N[C@@H](CCCCN)C(=O)N[C@@H](CC(C)C)C(=O)N[C@@H](CCC(N)=O)C(=O)N[C@@H](CC(=O)O)C(=O)N[C@H](C(=O)N[C@@H](Cc1c[nH]cn1)C(=O)N[C@@H](CC(N)=O)C(=O)N[C@@H](Cc1ccccc1)C(=O)O)C(C)C)C(C)C [PTH (1-34), Teriparatide, reference compound] | – | 38.5% | significantly increased | significantly increased | – | – | – | – | – | – | – | – | – | – | – | – | – | – | –
CC[C@H](C)[C@H](NC(=O)[C@H](CCC(=O)O)NC(=O)[C@H](CO)NC(=O)[C@@H](NC(=O)[C@@H](N)CO[C@@H]1O[C@H](CO)[C@@H](O)[C@H](O)[C@H]1NC(C)=O)C(C)C)C(=O)N[C@@H](CCC(N)=O)C(=O)N[C@@H](CC(C)C)C(=O)N[C@@H](CCSC)C(=O)N[C@@H](Cc1c[nH]cn1)C(=O)N[C@@H](CC(N)=O)C(=O)N[C@@H](CC(C)C)C(=O)NCC(=O)N[C@@H](CCCCN)C(=O)N[C@@H](Cc1c[nH]cn1)C(=O)N[C@@H](CC(C)C)C(=O)N[C@@H](CC(N)=O)C(=O)N[C@@H](CO)C(=O)N[C@@H](CCSC)C(=O)N[C@@H](CCC(=O)O)C(=O)N[C@@H](CCCNC(=N)N)C(=O)N[C@H](C(=O)N[C@@H](CCC(=O)O)C(=O)N[C@@H](Cc1c[nH]c2ccccc12)C(=O)N[C@@H](CC(C)C)C(=O)N[C@@H](CCCNC(=N)N)C(=O)N[C@@H](CCCCN)C(=O)N[C@@H](CCCCN)C(=O)N[C@@H](CC(C)C)C(=O)N[C@@H](CCC(N)=O)C(=O)N[C@@H](CC(=O)O)C(=O)N[C@H](C(=O)N[C@@H](Cc1c[nH]cn1)C(=O)N[C@@H](CC(N)=O)C(=O)N[C@@H](Cc1ccccc1)C(=O)O)C(C)C)C(C)C [PTHG2] | – | 39.1% | – | – | reduced | significant increase | significantly increased | significantly increased | same effect as PTH (1-34) | significantly reduced | no toxicity | no toxicity | no effect | significantly enhanced | higher than that in control group | significantly increased | did not increase | resemble to that of the control group | increased
